This is an account of results in ChEMBL document CHEMBL1208786, “1-Methyl-1H-pyrrole-2-carbonitrile containing tetrahydronaphthalene derivatives as non-steroidal progesterone receptor antagonists” (Bioorg Med Chem Lett, 2010).

The source made the active and inactive calls. The rule behind the calls is not given here.

The term IC50 denotes the concentration that gives 50% inhibition.

One experiment deals with T1, Progesterone receptor (Homo sapiens, UniProt P06401).
T1 sequence (P06401 whole entry): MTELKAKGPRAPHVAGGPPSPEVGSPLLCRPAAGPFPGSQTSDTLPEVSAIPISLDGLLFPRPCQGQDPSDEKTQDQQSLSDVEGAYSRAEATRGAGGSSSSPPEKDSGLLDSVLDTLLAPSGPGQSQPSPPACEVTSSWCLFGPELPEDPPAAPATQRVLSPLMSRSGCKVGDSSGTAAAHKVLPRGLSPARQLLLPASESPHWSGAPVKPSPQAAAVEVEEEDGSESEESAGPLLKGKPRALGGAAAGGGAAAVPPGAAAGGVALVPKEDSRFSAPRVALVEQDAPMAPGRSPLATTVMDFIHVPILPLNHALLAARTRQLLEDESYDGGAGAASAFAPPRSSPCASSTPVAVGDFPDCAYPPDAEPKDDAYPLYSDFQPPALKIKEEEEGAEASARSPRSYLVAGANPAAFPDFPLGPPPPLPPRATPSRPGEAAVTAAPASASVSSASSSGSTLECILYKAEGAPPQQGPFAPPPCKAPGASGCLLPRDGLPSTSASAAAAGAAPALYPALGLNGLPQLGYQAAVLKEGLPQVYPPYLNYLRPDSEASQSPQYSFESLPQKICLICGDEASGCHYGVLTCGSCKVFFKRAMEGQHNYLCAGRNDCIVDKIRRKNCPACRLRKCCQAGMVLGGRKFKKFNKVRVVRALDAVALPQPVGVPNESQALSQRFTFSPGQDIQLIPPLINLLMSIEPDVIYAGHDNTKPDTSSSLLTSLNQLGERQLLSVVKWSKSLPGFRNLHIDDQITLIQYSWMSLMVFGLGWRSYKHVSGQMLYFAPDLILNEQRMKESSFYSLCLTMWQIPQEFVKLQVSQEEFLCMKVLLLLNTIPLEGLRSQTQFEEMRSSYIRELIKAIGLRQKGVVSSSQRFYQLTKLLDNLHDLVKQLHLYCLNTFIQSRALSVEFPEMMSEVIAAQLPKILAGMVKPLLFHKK
Kind of experiment: Antagonist activity at progesterone receptor in human T47D cells assessed as inhibition of progesterone-induced alkaline phosphatase activity. Format: functional, cell-based.

Experiment [1] has as its target T2, Mineralocorticoid receptor (Homo sapiens) (UniProt P08235).
T2 sequence (whole entry): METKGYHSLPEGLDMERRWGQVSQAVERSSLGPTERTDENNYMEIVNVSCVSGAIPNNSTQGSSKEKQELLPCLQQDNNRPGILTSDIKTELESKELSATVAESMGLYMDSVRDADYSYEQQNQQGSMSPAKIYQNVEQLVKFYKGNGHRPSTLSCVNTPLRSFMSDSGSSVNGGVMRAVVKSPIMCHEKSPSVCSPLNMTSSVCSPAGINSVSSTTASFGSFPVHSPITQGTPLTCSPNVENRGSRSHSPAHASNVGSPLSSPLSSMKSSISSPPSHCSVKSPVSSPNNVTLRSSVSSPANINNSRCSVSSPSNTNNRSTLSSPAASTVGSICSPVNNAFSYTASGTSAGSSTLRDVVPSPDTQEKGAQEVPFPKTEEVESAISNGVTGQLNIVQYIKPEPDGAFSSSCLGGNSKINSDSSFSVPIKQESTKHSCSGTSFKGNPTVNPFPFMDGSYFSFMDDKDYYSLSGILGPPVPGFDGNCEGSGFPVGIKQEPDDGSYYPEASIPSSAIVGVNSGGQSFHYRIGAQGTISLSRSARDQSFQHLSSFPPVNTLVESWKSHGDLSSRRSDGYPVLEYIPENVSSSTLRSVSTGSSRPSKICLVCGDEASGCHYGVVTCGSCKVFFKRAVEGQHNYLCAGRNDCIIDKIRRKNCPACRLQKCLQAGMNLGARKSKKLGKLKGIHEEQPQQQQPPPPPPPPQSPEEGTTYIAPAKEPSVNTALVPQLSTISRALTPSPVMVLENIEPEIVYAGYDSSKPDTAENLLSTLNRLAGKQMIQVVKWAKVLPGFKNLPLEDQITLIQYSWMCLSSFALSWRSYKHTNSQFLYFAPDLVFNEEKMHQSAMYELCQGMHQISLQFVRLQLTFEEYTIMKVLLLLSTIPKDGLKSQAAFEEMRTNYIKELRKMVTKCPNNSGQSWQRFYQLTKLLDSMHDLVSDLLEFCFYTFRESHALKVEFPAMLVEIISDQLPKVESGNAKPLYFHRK
Kind of experiment: Antagonist activity at mineralocorticoid receptor ligand binding domain up to 10 uM by two hybrid assay.

The target of experiment [2] is T3, Estrogen receptor (Homo sapiens) (UniProt P03372).
T3 sequence (whole entry): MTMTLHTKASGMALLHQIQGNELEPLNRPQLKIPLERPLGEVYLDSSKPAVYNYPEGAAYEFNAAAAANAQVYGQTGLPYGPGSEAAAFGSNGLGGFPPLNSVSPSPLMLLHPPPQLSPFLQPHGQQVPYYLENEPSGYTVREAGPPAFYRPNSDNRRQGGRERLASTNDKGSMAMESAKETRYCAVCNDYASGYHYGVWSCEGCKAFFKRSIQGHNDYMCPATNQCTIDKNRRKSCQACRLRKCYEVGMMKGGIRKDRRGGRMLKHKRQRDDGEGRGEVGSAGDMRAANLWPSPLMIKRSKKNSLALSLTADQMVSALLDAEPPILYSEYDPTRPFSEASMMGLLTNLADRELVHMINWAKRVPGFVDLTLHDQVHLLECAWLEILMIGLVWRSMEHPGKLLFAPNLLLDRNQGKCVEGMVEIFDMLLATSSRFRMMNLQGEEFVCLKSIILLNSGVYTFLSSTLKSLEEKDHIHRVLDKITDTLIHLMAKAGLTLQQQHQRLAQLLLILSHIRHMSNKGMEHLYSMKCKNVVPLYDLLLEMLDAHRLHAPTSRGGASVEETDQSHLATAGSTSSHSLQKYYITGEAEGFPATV
The experiment can be described thus: Antagonist activity at estrogen receptor ligand binding domain up to 10 uM by two hybrid assay.

For experiment [3], the target named is T4, Glucocorticoid receptor (Homo sapiens) (UniProt P04150).
T4 sequence (whole entry): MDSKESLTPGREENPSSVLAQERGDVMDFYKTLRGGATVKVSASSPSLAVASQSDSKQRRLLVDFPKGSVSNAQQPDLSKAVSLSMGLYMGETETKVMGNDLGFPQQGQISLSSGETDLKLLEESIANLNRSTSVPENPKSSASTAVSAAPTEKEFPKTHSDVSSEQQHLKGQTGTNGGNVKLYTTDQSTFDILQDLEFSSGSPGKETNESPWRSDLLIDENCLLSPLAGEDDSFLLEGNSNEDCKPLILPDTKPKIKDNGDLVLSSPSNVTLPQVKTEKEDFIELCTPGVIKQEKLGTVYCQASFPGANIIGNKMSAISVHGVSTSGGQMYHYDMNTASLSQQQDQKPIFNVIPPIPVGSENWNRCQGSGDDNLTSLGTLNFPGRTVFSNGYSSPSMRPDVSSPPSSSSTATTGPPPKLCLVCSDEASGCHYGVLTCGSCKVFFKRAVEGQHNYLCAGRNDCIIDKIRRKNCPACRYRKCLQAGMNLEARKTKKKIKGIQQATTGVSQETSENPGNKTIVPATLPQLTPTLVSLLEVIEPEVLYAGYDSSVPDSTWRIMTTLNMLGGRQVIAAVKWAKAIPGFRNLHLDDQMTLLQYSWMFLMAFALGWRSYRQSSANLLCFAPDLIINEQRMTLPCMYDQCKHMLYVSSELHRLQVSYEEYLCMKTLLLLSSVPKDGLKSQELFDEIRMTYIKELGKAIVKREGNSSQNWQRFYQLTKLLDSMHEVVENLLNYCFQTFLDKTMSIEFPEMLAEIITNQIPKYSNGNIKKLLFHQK
The experiment can be described thus: Antagonist activity at glucocorticoid receptor ligand binding domain up to 10 uM by two hybrid assay.

For a further experiment, the target named is T5, Androgen receptor (Homo sapiens, UniProt P10275).
T5 sequence (P10275 whole entry): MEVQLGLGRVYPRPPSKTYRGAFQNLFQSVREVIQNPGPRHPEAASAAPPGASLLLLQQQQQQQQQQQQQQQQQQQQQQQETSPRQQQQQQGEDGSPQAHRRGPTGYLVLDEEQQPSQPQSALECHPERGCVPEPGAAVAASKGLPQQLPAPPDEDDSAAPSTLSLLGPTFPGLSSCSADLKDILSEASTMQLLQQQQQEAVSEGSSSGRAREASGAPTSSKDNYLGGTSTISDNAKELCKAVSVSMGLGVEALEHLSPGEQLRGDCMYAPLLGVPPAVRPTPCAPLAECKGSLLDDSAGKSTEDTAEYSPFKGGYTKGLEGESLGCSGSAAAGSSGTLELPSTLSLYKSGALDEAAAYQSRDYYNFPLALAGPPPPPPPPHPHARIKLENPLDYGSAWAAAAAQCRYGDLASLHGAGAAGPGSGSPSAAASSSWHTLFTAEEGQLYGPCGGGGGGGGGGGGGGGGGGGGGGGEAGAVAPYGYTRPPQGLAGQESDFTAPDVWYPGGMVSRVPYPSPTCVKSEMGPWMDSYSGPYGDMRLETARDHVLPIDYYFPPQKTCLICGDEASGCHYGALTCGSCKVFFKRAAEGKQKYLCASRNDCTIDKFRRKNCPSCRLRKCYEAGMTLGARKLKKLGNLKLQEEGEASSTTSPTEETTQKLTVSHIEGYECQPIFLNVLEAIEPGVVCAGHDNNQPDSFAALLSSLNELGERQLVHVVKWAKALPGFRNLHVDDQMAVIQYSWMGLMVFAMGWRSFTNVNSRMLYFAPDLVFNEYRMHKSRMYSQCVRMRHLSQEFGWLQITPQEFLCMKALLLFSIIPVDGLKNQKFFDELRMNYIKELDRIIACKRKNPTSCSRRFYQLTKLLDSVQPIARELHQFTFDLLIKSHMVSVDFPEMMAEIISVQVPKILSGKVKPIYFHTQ
The experiment can be described thus: Antagonist activity at androgen receptor ligand binding domain by two hybrid assay.

In the case of `Cn1c(C#N)ccc1-c1ccc(C(O)c2ccccc2)cc1` (stereo not drawn), at Progesterone receptor, the concentration for half-maximal inhibition (IC50) came out at 118 nM.

In the case of `Cn1c(C#N)ccc1-c1ccc(/C(=N\O)C(C)(C)C)cc1`, the inhibition result in experiment [1], in experiment [2] and in experiment [3] was “inactive” each time. In addition, the IC50 at Androgen receptor came out at 165 nM; on Progesterone receptor, 3 nM.

As for `CC(=O)c1ccc(-c2ccc(C#N)n2C)cc1`, the IC50 on Progesterone receptor was 800 nM.

As to `Cn1c(C#N)ccc1-c1ccc2c(c1)CCCC2O` (stereo not drawn), the IC50 on Progesterone receptor was determined as 7 nM.

For `Cn1c(C#N)ccc1-c1ccc(C(O)c2cccs2)cc1` (stereo not drawn), at Progesterone receptor, the IC50 turned out to be 47 nM.

In the case of `Cn1c(C#N)ccc1-c1ccc2c(c1)CCCC2(O)c1ccccc1` (stereo not drawn), on Progesterone receptor, the IC50 is 35 nM.

`C/C(=N/O)c1ccc(-c2ccc(C#N)n2C)cc1`: the IC50 on Progesterone receptor stood at 108 nM.

Consider `Cn1c(C#N)ccc1-c1ccc(C(=O)C(C)(C)C)cc1`, for which the inhibition result in experiment [1], in experiment [2] and in experiment [3] was “inactive” in each case. For the same compound, the IC50 on Androgen receptor amounted to 100 nM; at Progesterone receptor it was 3 nM.

As to `CC/C(=N/O)c1ccc(-c2ccc(C#N)n2C)cc1`, the IC50 on Progesterone receptor amounted to 17 nM.

On to `Cn1c(C#N)ccc1-c1ccc2c(c1)CCC/C2=N/O`, for which, at Progesterone receptor, the IC50 came to 33 nM.

Regarding `Cn1c(C#N)ccc1-c1ccc2c(c1)CCCC2(C)O` (stereo not drawn), the IC50 on Progesterone receptor turned out to be 6 nM.

Turning to `Cn1c(C#N)ccc1-c1ccc2c(c1)CCCC2=O`, the IC50 on Progesterone receptor is 28 nM.

Take `CC#CC1(O)CCCc2cc(-c3ccc(C#N)n3C)ccc21` (stereo not drawn): the IC50 at Progesterone receptor worked out at 10 nM.

Regarding `CCC(O)c1ccc(-c2ccc(C#N)n2C)cc1` (stereo not drawn), the IC50 at Progesterone receptor is 27 nM.

In the case of `CC(O)c1ccc(-c2ccc(C#N)n2C)cc1` (stereo not drawn), the IC50 on Progesterone receptor was 36 nM.
